# Measured values reported in patent US7262173B2, “Chemosensitizing with liposomes containing oligonucleotides” (Georgetown University, priority 1997, dated 2007).
# Experiments:
# [1] = tested on: SQ-20B cells; experiment: Intracellular raf ODN stability assay (PC/CHOL/DDAB liposomes); assay type: cell-based, human; details: 10 μM for 4 hours, then 20% FBS medium up to 24 hours; denaturing gel
# Description: FIG. 2: (a) Time-course of cellular uptake of LE-ATG-AS raf ODN (SEQ ID NO:1), SQ-20B cells were incubated with ^32P-5 end labeled and an excess of unlabeled LE-ATG-AS raf ODN (SEQ ID NO:1) (10 μM) for indicated times as described in the experimental procedures. Results are mean±s.d from two independent experiments each performed in duplicate, (b) Intracellular stability of LE-ATG-AS raf ODN (SEQ ID NO:1). Cells were incubated with ^32P-end labeled and an excess of unlabeled LE-ATG-AS raf ODN (SEQ ID NO:1) (10 μM in 1% FBS containing medium for […], washed with PBS and then incubations continued in 20% FBS containing medium for 0 hour (lane 2), 2 hours (lane 3), 8 hours (lane 4), 12 hours (lane 5), and 24 hours (lane 6). Cells were lysed and ODNs in various samples were analyzed by denaturing gel electrophoresis as explained in the experimental procedures. Lane 2, radiolabeled control LE-ATG-AS raf ODN (SEQ ID NO: 1); 15-mer, ATG-AS raf ODN (SEQ ID NO:1) migrations of xylene cyanol (XC) and bromophenol blue (BP) are indicated.
# For ODN stability studies, cells were seeded and incubated with 10 μM ^32P-labeled LE-ATG-AS raf ODN (SEQ ID NO:1) or ATG-AS raf ODN (SEQ ID NO:1) (1×10^6 c.p.m./ml) for 4 h at 37° C. in 1% FBS containing medium. […] ODNs were extracted with phenol: chloroform, and the aqueous fractions were collected and aliquots were analyzed by scintillation counting. […]
# [2] = tested on: SQ-20B tumor cells; experiment: Intracellular stability of antisense raf ODN in DMTAP:PC:CHOL liposomes; assay type: cell-based, human; details: 10 μM, 4 hours, 1% serum
# Description: Stability experiments: SQ-20B tumor cells were incubated with a mixture of radiolabeled-(^32P-γATP) and 10 μM of unlabeled antisense raf oligonucleotide (ATG-AS (SEQ ID NO:1)) either in the liposome encapsulated form (LE-ATG-AS (SEQ ID NO:1)) (FIG. 19, Lane 1) or free form (ATG-AS (SEQ ID NO:1)) (FIG. 19, lane 2). The treatment lasted for 4 hours at 37° C. in 1% serum containing medium. Immediately following incubation, cells were washed with phosphate buffered saline (PBS), detached by trypsinization, and collected by centrifugation. The cell pellet was washed twice with PBS, and cells were then lysed in 10 mM Tris-HCl, 200 mM NaCl, 1% SDS, 200 μg/ml proteinase K, pH 7.4 for 2 hours at 37° C. Oligos were extracted with phenol:chloroform, and aqueous fraction was collected. The samples were normalized for equal radioactivity, and analyzed hy denaturing gel electrophoresis (15% polyacrylamide/7M urea), followed by autoradiography. […]
# Stability experiments: SQ-20B tumor cells were incubated with a mixture of radiolabeled (^32P-γATP) and 10 μM of unlabeled antisense raf oligonucleotide (ATG-AS (SEQ ID NO:1)) in the liposome encapsulated form (LE-ATG-AS (SEQ ID NO:1)). […] The samples were normalized for equal radioactivity, and analyzed by denaturing gel electrophoresis (15% polyacrylamide/7M urea), followed by autoradiography. […]
substance,measurement,setting,value
"5′-GTG-CTCCATTGATGC-3′ (antisense GTGCTCCATTGATGC; DNA, linkages s1 o12 s1 (s phosphorothioate, o phosphodiester), methylation of C not given here) [ATG-AS raf ODN, antisense ODN to translation initiation site of human c-raf-1 cDNA; one terminal base linkage at each end phosphorothioate]",intracellular integrity of ODN,[1],no detectable ODN at all time-points
same,integrity of oligonucleotide in treated cells,[2],degraded form
